What was measured:
recombinant human FAK1 = molecular target: T1, recombinant human FAK1 (Homo sapiens, UniProt Q05397); assay: FAK1 HTRF assay; type: biochemical
T1 construct: fused on or other part: N-terminal 6xHis tag
Outline: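 His-tagged human FAK1 (residues 692–end, Sf9-expressed), 10 nM final, with 0.5 μM biotinylated gastrin-precursor Tyr87 peptide and a 10 μM final reagent in pH 7.4 buffer, 45 min at rt. Detection used Eu anti-pTyr antibody plus SA-APC (665/620 nm). Compounds top concentration 10 μM; IC50 from % inhibition.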

AURKB (Aurora B) enzyme = molecular target: T2, AURKB (Aurora B) enzyme (Homo sapiens, UniProt Q96GD4); assay: Aurora B HTRF assay; type: biochemical; details: read-out: AuroraB IC50
T2 construct: purchased Invitrogen PVR 130
T2 sequence (Q96GD4 whole entry): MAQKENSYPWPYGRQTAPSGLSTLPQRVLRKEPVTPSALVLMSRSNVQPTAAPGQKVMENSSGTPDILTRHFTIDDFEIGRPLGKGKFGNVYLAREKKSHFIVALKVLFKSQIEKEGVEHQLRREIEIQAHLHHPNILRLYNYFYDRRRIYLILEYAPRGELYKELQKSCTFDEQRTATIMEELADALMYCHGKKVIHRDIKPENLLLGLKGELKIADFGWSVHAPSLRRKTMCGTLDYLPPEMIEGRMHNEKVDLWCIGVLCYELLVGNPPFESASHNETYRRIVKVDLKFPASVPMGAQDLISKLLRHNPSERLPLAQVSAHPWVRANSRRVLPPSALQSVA
Outline: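 HTRF kinase assay with 5 nM Aurora B and 50 nM ULight-PLK (Ser137) peptide, with a reagent at 30 μM final; 1 h at rt. Reaction stopped with EDTA, and phospho-peptide detected with 2 nM Eu-anti-P-PLK(Ser137) antibody after 1 h at rt, read as HTRF.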

Recombinant Src enzyme = molecular target: T3, Recombinant Src enzyme (Homo sapiens, UniProt P12931); assay: Src HTRF assay; type: biochemical
T3 construct: purchased Millipore 14-326; host or cells: Sf21 insect cells
T3 sequence (P12931 whole entry): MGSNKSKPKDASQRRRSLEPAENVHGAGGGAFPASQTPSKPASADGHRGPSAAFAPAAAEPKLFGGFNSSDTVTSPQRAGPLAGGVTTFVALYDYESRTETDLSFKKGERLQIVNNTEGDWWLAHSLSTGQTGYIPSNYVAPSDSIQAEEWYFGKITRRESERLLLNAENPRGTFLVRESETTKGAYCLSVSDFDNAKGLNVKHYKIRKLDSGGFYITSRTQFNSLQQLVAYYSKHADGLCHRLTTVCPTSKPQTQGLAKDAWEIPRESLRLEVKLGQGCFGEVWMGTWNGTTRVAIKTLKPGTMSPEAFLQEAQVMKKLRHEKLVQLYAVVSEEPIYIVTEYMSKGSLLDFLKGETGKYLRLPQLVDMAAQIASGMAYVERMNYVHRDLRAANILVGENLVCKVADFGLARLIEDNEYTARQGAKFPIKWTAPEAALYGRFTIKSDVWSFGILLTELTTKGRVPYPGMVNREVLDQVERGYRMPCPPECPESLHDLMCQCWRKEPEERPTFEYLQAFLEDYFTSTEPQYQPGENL
Outline: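 Sf21-expressed recombinant Src at 5 nM final with biotinylated N-terminally tagged Tyk2 peptide substrate at 0.5 μM final; a component freshly made in enzyme assay buffer pH7.4 was used at 10 μM final. Buffer, supplements, compound handling and procedure as in the FAK HTRF assay; dasatinib included.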

JAK2 = JAK2 (Homo sapiens, UniProt O60674); assay: JAK2 biochemical potency; details: read-out: JAK2 HTRF IC50
JAK2, sequence (O60674 whole entry, species assumed): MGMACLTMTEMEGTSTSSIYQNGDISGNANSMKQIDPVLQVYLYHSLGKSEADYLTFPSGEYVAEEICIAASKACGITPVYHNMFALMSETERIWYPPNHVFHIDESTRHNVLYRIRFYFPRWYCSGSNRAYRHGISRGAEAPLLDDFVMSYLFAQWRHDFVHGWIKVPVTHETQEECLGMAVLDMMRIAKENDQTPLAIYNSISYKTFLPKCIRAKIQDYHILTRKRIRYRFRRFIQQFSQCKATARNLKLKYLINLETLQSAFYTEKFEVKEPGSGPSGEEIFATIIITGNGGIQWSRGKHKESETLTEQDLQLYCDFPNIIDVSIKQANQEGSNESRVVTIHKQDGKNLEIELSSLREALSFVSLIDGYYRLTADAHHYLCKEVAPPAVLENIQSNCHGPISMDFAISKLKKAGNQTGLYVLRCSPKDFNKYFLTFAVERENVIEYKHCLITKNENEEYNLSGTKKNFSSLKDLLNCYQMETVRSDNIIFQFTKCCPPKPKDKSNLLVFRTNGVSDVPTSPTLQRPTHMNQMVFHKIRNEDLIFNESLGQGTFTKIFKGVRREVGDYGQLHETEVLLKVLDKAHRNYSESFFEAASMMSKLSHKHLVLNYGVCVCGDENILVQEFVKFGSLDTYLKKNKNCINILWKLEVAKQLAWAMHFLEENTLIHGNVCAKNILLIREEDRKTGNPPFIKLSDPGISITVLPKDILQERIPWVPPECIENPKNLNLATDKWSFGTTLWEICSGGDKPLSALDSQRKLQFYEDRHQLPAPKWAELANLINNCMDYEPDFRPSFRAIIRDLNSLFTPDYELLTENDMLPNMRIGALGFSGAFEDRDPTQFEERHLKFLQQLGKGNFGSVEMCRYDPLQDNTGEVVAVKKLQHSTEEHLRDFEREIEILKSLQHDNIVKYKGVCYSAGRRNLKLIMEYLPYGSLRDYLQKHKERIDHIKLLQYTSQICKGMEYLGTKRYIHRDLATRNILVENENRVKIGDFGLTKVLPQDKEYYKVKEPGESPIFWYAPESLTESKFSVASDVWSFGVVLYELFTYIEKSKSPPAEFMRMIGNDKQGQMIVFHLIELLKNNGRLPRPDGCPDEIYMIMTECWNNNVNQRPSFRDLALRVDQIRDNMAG

[1] = molecular target: T4, FAK phosphorylated at Y397 in HEK-FAK cell line overexpressing human FL FAK protein (Homo sapiens, UniProt Q05397); assay: Cell based assay, Phospho-FAK ELISA; details: HEK stb; read-out: pFAK EC50 (μM) HEK stb
T4 construct: expressed in transfected cells
T4 sequence (Q05397 whole entry): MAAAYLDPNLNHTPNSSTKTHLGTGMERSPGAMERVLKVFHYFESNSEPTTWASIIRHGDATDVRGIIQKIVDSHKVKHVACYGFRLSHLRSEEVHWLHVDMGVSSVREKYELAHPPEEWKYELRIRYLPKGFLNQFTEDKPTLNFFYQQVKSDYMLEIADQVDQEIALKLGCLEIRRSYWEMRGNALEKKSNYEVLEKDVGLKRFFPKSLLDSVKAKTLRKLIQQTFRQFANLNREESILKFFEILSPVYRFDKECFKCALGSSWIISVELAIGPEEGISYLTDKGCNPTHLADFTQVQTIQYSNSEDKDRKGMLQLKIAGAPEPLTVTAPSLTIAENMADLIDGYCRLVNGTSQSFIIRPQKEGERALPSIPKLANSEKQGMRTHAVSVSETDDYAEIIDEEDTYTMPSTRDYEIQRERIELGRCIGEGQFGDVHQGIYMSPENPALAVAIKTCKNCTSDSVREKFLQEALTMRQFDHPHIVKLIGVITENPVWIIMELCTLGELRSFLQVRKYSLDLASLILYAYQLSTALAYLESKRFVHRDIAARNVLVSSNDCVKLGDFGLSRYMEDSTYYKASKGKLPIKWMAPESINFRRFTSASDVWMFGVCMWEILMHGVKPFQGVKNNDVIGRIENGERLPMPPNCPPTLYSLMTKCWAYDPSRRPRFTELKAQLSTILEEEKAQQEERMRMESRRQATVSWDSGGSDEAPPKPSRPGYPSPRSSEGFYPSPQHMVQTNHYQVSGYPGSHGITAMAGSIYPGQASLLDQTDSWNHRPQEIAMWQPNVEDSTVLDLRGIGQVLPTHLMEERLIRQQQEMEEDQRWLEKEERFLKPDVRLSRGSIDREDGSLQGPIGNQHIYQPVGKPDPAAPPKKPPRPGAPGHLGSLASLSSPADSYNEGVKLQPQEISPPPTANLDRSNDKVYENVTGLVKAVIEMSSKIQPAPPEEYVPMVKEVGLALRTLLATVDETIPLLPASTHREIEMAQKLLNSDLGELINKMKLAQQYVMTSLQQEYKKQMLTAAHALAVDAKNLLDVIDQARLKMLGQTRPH
Outline: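 Stable HEK293 line overexpressing full-length human FAK, kept under 0.8 mg/mL Zeocin. In lysates, FAK Y397 autophosphorylation was measured by sandwich ELISA: total-FAK capture antibody, biotinylated pY397-specific detection antibody, streptavidin-HRP with TMB substrate.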

T1 sequence (Q05397 422-680 limits assumed): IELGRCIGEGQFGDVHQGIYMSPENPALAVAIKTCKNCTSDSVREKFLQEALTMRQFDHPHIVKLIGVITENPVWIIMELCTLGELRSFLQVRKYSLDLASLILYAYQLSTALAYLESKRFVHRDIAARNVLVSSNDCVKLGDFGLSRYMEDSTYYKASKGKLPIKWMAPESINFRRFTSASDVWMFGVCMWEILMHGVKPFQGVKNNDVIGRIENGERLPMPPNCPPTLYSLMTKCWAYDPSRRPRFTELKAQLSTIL

Structure (SMILES) | IC50 (recombinant human FAK1) | IC50 (AURKB (Aurora B) enzyme) | IC50 (Recombinant Src enzyme) | IC50 (JAK2) | EC50 [1]
CN(c1ncccc1Cn1ccc2cnc(Nc3ccc4c(c3)CCC(=O)N4)nc21)S(C)(=O)=O [Example 5] | < 20 nM | < 20 nM | < 20 nM | < 20 nM | –
CC(=O)Nc1ccc(Nc2cc3c(ccn3S(=O)(=O)c3cccc(OC(F)(F)F)c3)cn2)cc1 [Example 54] | – | – | > 1000 nM | > 1000 nM | –
CC(=O)Nc1cccc(Nc2cc3c(ccn3S(=O)(=O)c3cccc(OC(F)(F)F)c3)cn2)c1 [Example 55] | – | > 1000 nM | > 1000 nM | > 1000 nM | –
CC(=O)Nc1cccc(Nc2cc3c(ccn3S(=O)(=O)c3ccccc3OC(F)(F)F)cn2)c1 [Example 58] | – | > 1000 nM | > 1000 nM | > 1000 nM | –
O=C1CCc2cc(Nc3cc4c(ccn4S(=O)(=O)c4ccccc4OC(F)(F)F)cn3)ccc2N1 [Example 59] | – | > 1000 nM | > 1000 nM | > 1000 nM | > 1 µM
CC(=O)Nc1ccc(Nc2cc3c(cn2)cnn3Cc2cccnc2N(C)S(C)(=O)=O)cc1 [Example 66] | – | > 1000 nM | > 1000 nM | > 1000 nM | –
CC(=O)Nc1cccc(Nc2cc3c(cn2)c(C)nn3Cc2ccccc2OC(F)F)c1 [Example 78] | > 1000 nM | – | > 1000 nM | > 1000 nM | –
Cc1nn(Cc2ccccc2OC(F)F)c2cc(Nc3ccc4c(c3)CCC(=O)N4)ncc12 [Example 80] | – | > 1000 nM | > 1000 nM | > 1000 nM | –
CC(=O)Nc1ccc(Nc2cc3c(cn2)c(C)nn3Cc2ccccc2OC(F)F)cc1 [Example 81] | > 1000 nM | – | > 1000 nM | > 1000 nM | –
O=S(=O)(c1ccccc1OC(F)(F)F)n1ccc2cnc(Nc3ccc(N4CCOCC4)cc3)cc21 [Example 113] | – | < 20 nM | > 1000 nM | > 1000 nM | –
O=c1[nH]c2ccc(Nc3cc4c(ccn4S(=O)(=O)c4ccccc4OC(F)(F)F)cn3)cc2[nH]1 [Example 118] | < 20 nM | < 20 nM | > 1000 nM | > 1000 nM | –
COc1ccccc1Nc1ncc2ccn(Cc3cccnc3N(C)S(C)(=O)=O)c2n1 [Example 154] | – | > 1000 nM | > 1000 nM | > 1000 nM | > 1 µM
Cc1cc(Nc2ncc3ccn(Cc4cccnc4N(C)S(C)(=O)=O)c3n2)ccc1N1CCNCC1 [Example 197] | – | < 20 nM | < 20 nM | < 20 nM | –
CN(C)S(=O)(=O)c1ccccc1Cn1ncc2cnc(Nc3ccc4c(c3)CCC(=O)N4)cc21 [Example 204] | < 20 nM | < 20 nM | – | < 20 nM | > 1 µM
CN(c1ncccc1Cn1ccc2cnc(Nc3ccc(C4=CCNCC4)cc3)nc21)S(C)(=O)=O [Example 206] | – | < 20 nM | < 20 nM | < 20 nM | –
N#Cc1ccccc1S(=O)(=O)n1ncc2cnc(Nc3ccc4c(c3)CCC(=O)N4)nc21 [Example 220] | – | < 20 nM | < 20 nM | < 20 nM | –
O=S(=O)(c1cccc2cccnc12)n1ccc2cnc(Nc3ccc(N4CC5CC4CN5)cc3)cc21 (stereo not drawn) [Example 329] | < 20 nM | < 20 nM | > 1000 nM | > 1000 nM | –
COc1cc(N2CCNCC2)ccc1Nc1ncc2ccn(Cc3cccnc3N(C)S(C)(=O)=O)c2n1 [Example 337] | < 20 nM | – | > 1000 nM | > 1000 nM | –
COc1cc(N2CCNCC2)ccc1Nc1cc2c(cn1)cnn2S(=O)(=O)c1cccc2cccnc12 [Example 338, N-(2-methoxy-4-(piperazin-1-yl)phenyl)-1-(quinolin-8-ylsulfonyl)-1H-pyrazolo[4,3-c]pyridin-6-amine] | < 20 nM | – | > 1000 nM | > 1000 nM | < 0.02 µM
COc1cc(N2CCN(CCO)CC2)ccc1Nc1ncc2ccn(S(=O)(=O)c3cccc4cccnc34)c2n1 [Example 347] | < 20 nM | – | > 1000 nM | > 1000 nM | –
O=S(=O)(c1cccc2cccnc12)n1ccc2cnc(Nc3ccc(N4CCNCC4)cc3OC3CCC3)nc21 [Example 358] | > 1000 nM | – | > 1000 nM | > 1000 nM | > 1 µM
COc1cc(N2CCNCC2)ccc1Nc1ncc2c(n1)N(S(=O)(=O)c1cccc3cccnc13)CC2(C)C [Example 446] | < 20 nM | > 1000 nM | > 1000 nM | > 1000 nM | –
CN(c1ccccc1Cn1ccc2cnc(Nc3ccc(OC4CNC4)cc3)nc21)S(C)(=O)=O [Example 515] | – | – | – | < 20 nM | > 1 µM

Second part, the compound after the results:

IC50 (recombinant human FAK1) | IC50 (AURKB (Aurora B) enzyme) | IC50 (Recombinant Src enzyme) | IC50 (JAK2) | EC50 [1] | Structure (SMILES)
< 20 nM | – | – | < 20 nM | > 1 µM | CN(c1ccccc1Cn1ccc2cnc(Nc3ccc(N4CCOCC4)cc3)nc21)S(C)(=O)=O [Example 111]
< 20 nM | < 20 nM | – | < 20 nM | > 1 µM | N#Cc1ccccc1S(=O)(=O)n1ccc2cnc(Nc3ccc(N4CCNCC4)cc3)nc21 [Example 185]
< 20 nM | < 20 nM | < 20 nM | < 20 nM | – | O=S(=O)(c1cccc2cccnc12)n1ccc2cnc(Nc3ccc(N4CCNCC4)c(F)c3)nc21 [Example 194]
– | – | – | < 20 nM | > 1 µM | CN(C)S(=O)(=O)c1ccccc1Cn1ncc2cnc(Nc3ccc(N4CCNCC4)cc3)cc21 [Example 208]
< 20 nM | < 20 nM | < 20 nM | < 20 nM | – | C[C@@H]1CN(c2ccc(Nc3ncc4ccn(S(=O)(=O)c5cccc6cccnc56)c4n3)cc2)CCN1 [Example 213]
< 20 nM | – | < 20 nM | < 20 nM | – | CN(c1ccccc1Cn1ccc2cnc(Nc3ccc(N4CCNCC4)cc3)nc21)S(C)(=O)=O [Example 214]
– | < 20 nM | < 20 nM | < 20 nM | > 1 µM | O=S(=O)(c1ccccc1)n1ccc2cnc(Nc3ccc(N4CCNCC4)cc3)nc21 [Example 224]
– | < 20 nM | – | < 20 nM | > 1 µM | C[C@@H]1CN(c2ccc(Nc3ncc4ccn(S(=O)(=O)c5ccccc5C#N)c4n3)cc2)CCN1 [Example 243]
– | < 20 nM | – | < 20 nM | > 1 µM | C[C@H]1CN(c2ccc(Nc3ncc4ccn(S(=O)(=O)c5cccc(C#N)c5)c4n3)cc2)CCN1 [Example 306]
< 20 nM | < 20 nM | < 20 nM | < 20 nM | – | O=S(=O)(c1cccc2cccnc12)n1ccc2cnc(Nc3ccc(N4CCN(CCO)CC4)cc3)nc21 [Example 311]
– | – | – | < 20 nM | > 1 µM | C[C@H]1CNCCN1c1ccc(Nc2ncc3ccn(Cc4cccnc4N(C)S(C)(=O)=O)c3n2)cc1 [Example 320]
< 20 nM | < 20 nM | > 1000 nM | > 1000 nM | – | COc1cc(N2CCNCC2)ccc1Nc1ncc2ccn(S(=O)(=O)c3cccc4cccnc34)c2n1 [Example 327]
< 20 nM | – | > 1000 nM | > 1000 nM | – | COc1cc(N2CCNCC2)ccc1Nc1ncc2ccn(S(=O)(=O)c3ccccc3C#N)c2n1 [Example 336]
< 20 nM | – | > 1000 nM | > 1000 nM | – | COc1cc(N2CCNCC2)ccc1Nc1cc2c(ccn2S(=O)(=O)c2ccccc2C#N)cn1 [Example 348]
< 20 nM | < 20 nM | > 1000 nM | > 1000 nM | – | COc1cc(N2CCC(O)CC2)ccc1Nc1ncc2ccn(S(=O)(=O)c3cccc4cccnc34)c2n1 [Example 356]
< 20 nM | < 20 nM | – | < 20 nM | – | C[C@@H]1CN(c2ccc(Nc3ncc4ccn(Cc5ccccc5N(C)S(C)(=O)=O)c4n3)cc2)CCN1 [Example 448, (R)—N-methyl-N-(2-((2-((4-(3-methylpiperazin-1-yl)phenyl)amino)-7H-pyrrolo[2,3-d]pyrimidin-7-yl)methyl)phenyl)methanesulfonamide]
< 20 nM | < 20 nM | – | < 20 nM | – | C[C@H]1CN(c2ccc(Nc3ncc4ccn(Cc5ccccc5N(C)S(C)(=O)=O)c4n3)cc2)CCN1 [Example 467]
< 20 nM | < 20 nM | – | < 20 nM | – | CN(C)C1CCN(c2ccc(Nc3ncc4ccn(Cc5ccccc5N(C)S(C)(=O)=O)c4n3)cc2)CC1 [Example 468]
